Experimental data as given in ChEMBL document CHEMBL4706757, “Novel Substituted Pyridazines as Splicing Modulators for Modulating Splicing of mRNA and Uses Thereof for Treating Diseases” (ACS Med Chem Lett, 2021).

What was measured:
Type in all cases: cell-based
[1] = Modulation of HTT mRNA exon 49b splicing in human GM04724 cells incubated for 24 hrs by TaqMan qPCR analysis; conditions: GM04724, 24 h
[2] = Modulation of HTT mRNA exon 49-50 splicing in human GM04724 cells incubated for 24 hrs by TaqMan qPCR analysis; conditions: GM04724, 24 h
[3] = Modulation of HTT mRNA splicing in human GM04724 cells assessed as mHTT protein level incubated for 48 hrs by 2B7-MW1 assay; conditions: GM04724, 48 h

Measured: EC50

C[C@@]12CCC[C@@](C)(N1)[C@H](F)[C@H](Oc1ccc(-c3ccc(-c4cn[nH]c4)cc3O)nn1)C2
≤ 0.01 nM: [1] | [2] | [3]

Cn1cc(-c2cc(O)c(-c3ccc(O[C@@H]4C[C@@H]5CCC[C@@H](N5)[C@@H]4F)nn3)cc2F)cn1
≤ 0.01 nM: [1] | [2] | [3]

Oc1cc(-c2cn[nH]c2)c(F)cc1-c1ccc(O[C@@H]2C[C@@H]3CCC[C@@H](N3)[C@@H]2F)nn1
≤ 0.01 nM: [1] | [2] | [3]

Oc1cc(-c2cn[nH]c2)c(F)cc1-c1ccc(O[C@H]2C[C@H]3CCC[C@H](N3)[C@H]2F)nn1
≤ 0.01 nM: [1] | [2] | [3]

Oc1cc(-c2cn[nH]c2)ccc1-c1ccc(O[C@H]2C[C@H]3CCC[C@H](N3)[C@H]2F)nn1
≤ 0.01 nM: [1] | [2] | [3]

Oc1cc(-c2cn[nH]c2)ccc1-c1ccc(O[C@@H]2C[C@@H]3CCC[C@@H](N3)[C@@H]2F)nn1
≤ 0.01 nM: [1] | [2] | [3]

C[C@]12CCC[C@](C)(N1)[C@@H](F)[C@@H](Oc1ccc(-c3ccc(-c4cn[nH]c4)cc3O)nn1)C2
≤ 0.01 nM: [1] | [2] | [3]

Cn1cc(-c2cc(O)c(-c3ccc(O[C@H]4C[C@H]5CCC[C@H](N5)[C@H]4F)nn3)cc2F)cn1
≤ 0.01 nM: [1] | [2] | [3]
